Measurements published in paper PMC5566973 (Frontiers in Pharmacology, 2017).
Where two headings read alike, the source gives them in different places.

What was measured:
[1] = system: Caco-2 cells; assay: Cytotoxicity CCK-8 assay in Caco-2 cells; type: cell-based, human; conditions: Caco-2, CCK-8
Experimental: (§1) In brief, the cells were seeded on 96-well plates at 1 × 10^5 cells/mL and cultured in 100 μL of culture medium at incubator for 24 h. […] After 12 h incubation, 10 μL of CCK-8 dye was added to each well, and cells were incubated for another 2 h. Cell viability (%) was calculated using the following Equation (1):
(§2) (1) Cell viability (%)=(ODsample−ODblank)/ (ODcontrol−ODblank) ×100%
(§3) ODsample refers to the absorbance of a well with treated cells and CCK-8. ODblank refers to the absorbance of a well with medium and CCK-8 but without cells. ODcontrol refers to the absorbance of a well with untreated cells and CCK-8. The absorbance at 450 nm was measured by a microplate reader (Biotek Instrument; Gene Co., Ltd., VT, USA), and the results are presented as mean ± SD from triplicate wells.

[2] = Cytotoxicity CCK-8 assay in Caco-2 cells; type: cell-based, human; conditions: human, Caco-2 cells, 12 h incubation, read-out: Cell viability
Experimental: as §1, §2, §3

[3] = system: MDCK-MRP2 cell monolayers; assay: Bidirectional transport in MDCK-MRP2 cell monolayers with MRP2 inhibitors; type: in vitro ADME, canine; conditions: MDCK-MRP2, 2 μM
Experimental: (§4) Caco-2, MDCK and MDCK-MRP2 cells were donated by Prof. Yan Xie and Yueming Ma from Shanghai University of Traditional Chinese Medicine. The cells were grown in culture dishes (Corning® Costar, Cambridge, MA, USA) using DMEM supplemented with 10% FBS, 1% NEAA and 1% penicillin-streptomycin solution. The cells were cultured in 5% CO2 and […] with 90% relative humidity at 37°C. The medium was replaced every other day during incubation. The cells were passaged every 3–4 days between 70 and 80% confluence at a 1:5 split ratio using 0.25% trypsin-EDTA. For the transport experiments, the cells from passages between 30 and 45 were seeded at 1 × 10^5 cells/cm^2 onto permeable polycarbonate inserts (0.45 μm pore size, seeding surface of 0.6 cm^2, Millipore, MA, USA) in 24-well plastic plates. The media in the culture plates were changed every other day for the first week after seeding and were replaced daily afterward. […] The cells were used for the transport experiments 21–28 (Caco-2) or 5–7 (MDCK and MDCK-MRP2) days after seeding, and only monolayers with a TEER-value above 420 Ω cm^2 were used during the studies.
(§5) The apical (AP) and basolateral (BL) sides are typical of polarized Caco-2, MDCK and MDCK-MRP2 epithelial cells. Before the experiments, the polarized cell monolayers were washed twice with warm HBSS solution and subsequently preincubated (37°C, 30 min). Afterward, HBSS solution on both sides of the cell monolayers was removed using a mini desktop vacuum pump. […] The final DMSO concentration in the HBSS or drug mixture was below 0.5%. The monolayers were incubated at 37°C, and 100 μL samples were taken at 30, 60, 90, and 120 min from the acceptor compartment and immediately replaced with the same volume of prewarmed fresh blank HBSS. TEER measurements for assessing the membrane integrity took place before and after the experiments.
(§6) The apparent permeability coefficients (Papp) and ER were calculated as Equations (2) and (3): […]
(§7) where dQ/dt is the steady-state flux, A is the membrane surface area, and C0 is the initial drug concentration in the donor compartment. PappBA is the Papp-value measured in BL to AP direction and PappAB is the Papp-value measured in AP to BL direction. It indicated the involvement of an active transport process when the ER-value is above 1.5 (Hubatsch et al., [2007]).

[4] = system: MRP2; assay: as above; type: in vitro ADME, canine; conditions: dog, MDCK-MRP2, 2 μM; for efflux ratio at 120 min, 2 μM: read-out: ER
Experimental: as §4, §5, §6, §7

[5] = Pharmacokinetics in rats after intravenous and intragastric administration; conditions: for bioavailability: F%
Experimental: Fifty-six pathogen-free Sprague-Dawley adult rats comprising 28 males and 28 females (weighing within the range of 200–250 g) were obtained from Drug Safety Evaluation and Research Center of Shanghai University of Traditional Chinese Medicine. Animals were raised under an environmentally controlled breeding room for 7 days before commencing the experiments. Animals were housed in a well-lighted air-conditioned room (25 ± 1°C) under standard environmental conditions (12 h light-dark cycles) and given free access to rodent chow and tap water prior to the study. Rats were fasted for 12 h and provided free access to water prior to the experiments. All animal-use procedures were in accordance with the regulations for animal experimentation issued by the State Committee of Science and Technology of the People's Republic of China on 14 November 1988 and approved by the Animal Ethics Committee of Shanghai University of Traditional Chinese Medicine (No. SUTCM-2011-1107; Approval date: 10 November, 2011).
Forty rats with 20 males and 20 females were randomly divided into five groups of eight rats in each. […] Approximately 0.25 mL of blood sample was collected from the angular vein of each conscious rat and transferred into heparinized tubes at 0 (predose), 0.03, 0.08, 0.25, 0.5, 0.75, 1.0, 2.0, 4.0, 8.0, 12.0, and 24.0 h after administration. Rats had free access to water after 4.0 h of blood sample collection. Serial blood samples were immediately centrifuged at 3,000 rpm for 15 min, and 100 μL of the supernatant plasma layer was transferred into another new 1.5 mL centrifuge tube and stored at −80°C until analysis.
The maximum peak concentration (Cmax) and time of maximum plasma concentration (Tmax) were obtained directly from the observed concentration vs. time data.
(5) F=(AUC0−∞,oral×Doseiv)/(AUC0−∞,iv×Doseoral)×100%

[6] = system: ATP (adenosine triphosphate); assay: Bidirectional transport in MDCK cell monolayers with selective transporter inhibitors or substrates; type: in vitro ADME, canine; conditions: dog, with NaN3 10 mM, + NaN3 10 mM (ATP)
Experimental: as §4, §5, §6, §7

[7] = with MK571 0.05 mM (50 μM), + MK571 0.05 mM (MRP2)
[8] = with probenecid 0.2 mM (200 μM), + Probenecid 0.2 mM (MRP2)
[9] = both, Sprague-Dawley, rat, in vivo, iv, 3.3 mg/kg
[10] = both, Sprague-Dawley, rat, in vivo, iv, 3.3 mg/kg, rats, i.v. 3.3 mg/kg
[11] = both, Sprague-Dawley, rat, in vivo, po, 40 mg/kg
[12] = both, Sprague-Dawley, rat, in vivo, po, 40 mg/kg, rats, harmine p.o. 40.0 mg/kg co-administered with probenecid 20.0 mg/kg
[13] = both, Sprague-Dawley, rat, in vivo, po, 40 mg/kg, rats, p.o. 40.0 mg/kg
[14] = both, Sprague-Dawley, rat, in vivo, po, 40 mg/kg, rats, p.o. 40.0 mg/kg vs i.v. 3.3 mg/kg
[15] = rats, harmine p.o. 40.0 mg/kg co-administered with probenecid 20.0 mg/kg

## COc1ccc2c(c1)[nH]c1c(C)nccc12 [Harmine]
[1]
  concentration without toxicity or decreased cell viability: up to 5 μM
  drug concentration producing notable toxicity: > 25 µM
[2]; Caco-2, up to 5 μM
  viability at 12 h: > 90%
[3]; + MK571 0.05 mM (MRP2)
  Modulatory effect: +
[3]; + Probenecid 0.2 mM (MRP2)
  Modulatory effect: +
[4]; [7]
  Papp A→B at 120 min, 2 μM: 20.8 ± 1.49 ×10⁻⁶ cm/s
  Papp B→A at 120 min, 2 μM: 11.8 ± 1.25 ×10⁻⁶ cm/s
[4]; [8]
  Papp A→B at 120 min, 2 μM: 10.1 ± 1.69 ×10⁻⁶ cm/s
  Papp B→A at 120 min, 2 μM: 8.62 ± 1.05 ×10⁻⁶ cm/s
[4]; Control (no inhibitor)
  Papp A→B at 120 min, 2 μM: 3.55 ± 0.4 ×10⁻⁶ cm/s
  Papp B→A at 120 min, 2 μM: 8.18 ± 0.98 ×10⁻⁶ cm/s
[5]; [9]
  Vd: 10.4 ± 5.75 L/kg
  clearance: 40.8 mL/min/kg
  k el: 8.33e-05 s⁻¹
[5]; [10]
  AUC(0-t): 1260 ± 238 ng·h/mL
  AUC(0-inf): 1270 ± 239 ng·h/mL
  Cmax: 2320 ± 663 ng/mL
  MRT: 1.01 ± 0.3 h
  Tmax: 0.03 h
[5]; [11]
  k el: 1.39e-05 s⁻¹
[5]; [12]
  AUC(0-t): 292 ± 70.4 ng·h/mL
  AUC(0-inf): 349 ± 76.7 ng·h/mL
  Cmax: 98.9 ± 31.1 ng/mL
  bioavailability: 2.14 ± 0.59%
  MRT: 13.7 ± 3.54 h
  Tmax: 0.79 ± 0.12 h
[5]; [13]
  AUC(0-t): 154 ± 46.5 ng·h/mL
  AUC(0-inf): 184 ± 57.4 ng·h/mL
  Cmax: 67 ± 34.3 ng/mL
  MRT: 4.41 ± 1.03 h
  Tmax: 0.56 ± 0.13 h
[5]; [14]
  bioavailability: 1.09 ± 0.27%
[5]; rats, harmine p.o. 40.0 mg/kg + probenecid 20.0 mg/kg vs harmine alone
  increase of F-value after probenecid co-administration: 1.96 folds
[5]; [15]
  CL: 1966.7387 ± 409.9968 mL/min/kg
  Ka: 0.73 ± 0.46 h⁻¹
  Vd: 2464.53513 ± 990.15463 L/kg
[5]; rats, i.v. 3.3 mg/kg
  Ka: 2.71 ± 1.24 h⁻¹
[5]; rats, p.o. 40.0 mg/kg
  CL: 3890.6588 ± 936.7433 mL/min/kg
  Ka: 0.63 ± 0.42 h⁻¹
  Vd: 4761.64239 ± 1571.7721 L/kg
[6]
  Papp A→B at 120 min, 2 μM: 4.02 ± 0.18 ×10⁻⁶ cm/s
  Papp B→A at 120 min, 2 μM: 5.94 ± 0.63 ×10⁻⁶ cm/s

## COc1ccc2c3c([nH]c2c1)C(C)=NCC3 [Harmaline]
[1]
  concentration without toxicity or decreased cell viability: up to 25 μM
  drug concentration producing notable toxicity: higher than 100 μM
[2]; Caco-2, up to 25 μM
  viability at 12 h: > 90%
[3]; + MK571 0.05 mM (MRP2)
  Modulatory effect: −
[3]; + Probenecid 0.2 mM (MRP2)
  Modulatory effect: −
[4]; [7]
  Papp A→B at 120 min, 2 μM: 31.8 ± 1.37 ×10⁻⁶ cm/s
  Papp B→A at 120 min, 2 μM: 40.9 ± 5.48 ×10⁻⁶ cm/s
  efflux ratio at 120 min, 2 μM: 1.34
[4]; [8]
  Papp A→B at 120 min, 2 μM: 32.9 ± 2.23 ×10⁻⁶ cm/s
  Papp B→A at 120 min, 2 μM: 41.9 ± 5.58 ×10⁻⁶ cm/s
  efflux ratio at 120 min, 2 μM: 1.28
[4]; Control (no inhibitor)
  Papp A→B at 120 min, 2 μM: 24.3 ± 2.72 ×10⁻⁶ cm/s
  Papp B→A at 120 min, 2 μM: 32.4 ± 3.81 ×10⁻⁶ cm/s
  efflux ratio at 120 min, 2 μM: 1.33
[5]; [9]
  Vd: 94.1 ± 102 L/kg
  clearance: 173 mL/min/kg
  k el: 6.39e-05 s⁻¹
[5]; [10]
  AUC(0-t): 299 ± 64.3 ng·h/mL
  AUC(0-inf): 307 ± 64.3 ng·h/mL
  Cmax: 258 ± 64.9 ng/mL
  MRT: 2.53 ± 1.42 h
  Tmax: 0.03 h
[5]; [11]
  k el: 5.56e-05 s⁻¹
[5]; [13]
  AUC(0-t): 644 ± 328 ng·h/mL
  AUC(0-inf): 666 ± 322 ng·h/mL
  Cmax: 118 ± 59 ng/mL
  MRT: 6.24 ± 3.18 h
  Tmax: 1.76 ± 1.11 h
[5]; [14]
  bioavailability: 17.1 ± 10.1%
[5]; rats, i.v. 3.3 mg/kg
  Ka: 1.26 ± 0.83 h⁻¹
  T1/2a: 1.24 ± 1.02 h
  T1/2e: 4.05 ± 1.39 h
  T1/2d: 1.57 ± 1.25 h
[5]; rats, p.o. 40.0 mg/kg
  CL: 1244.488 ± 688.6782 mL/min/kg
  Ka: 0.71 ± 0.38 h⁻¹
  T1/2a: 1.74 ± 1.13 h
  T1/2e: 5.13 ± 1.52 h
  T1/2d: 2.40 ± 1.20 h
  Vd: 705.97445 ± 595.53126 L/kg
[6]; read-out: ER
  efflux ratio at 120 min, 2 μM: 1.4
